According to patent US6479435B1, “Diaryl ethers and processes for their preparation and herbicidal and desiccant compositions containing them” (ISK Americas Incorporated, priority 1997, dated 2002):

Legend:
Format in all cases: in vivo
[1] = tested on: upland rice (Oryza sp., var.Tebonnet, RICE); test: Post-emerge greenhouse test, crop damage rating; conditions: 14 days after application
Procedure, shortened: (§1)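 Scores use a 0 (no damage) to 100 (complete kill) scale, taken 14 days after a foliar spray. Acetone solutions with 0.25% v/v non-ionic surfactant were applied by track sprayer at 187 l/ha and 63-1000 g ai/ha to bottom-watered 2-3 leaf plants.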

[2] = tested on: field corn (Zea mays L., var. Dekalb 535, CORN); test: Post-emerge greenhouse test, crop damage rating; conditions: 14 days after application
Procedure, shortened: as §1

[3] = tested on: common ragweed (Ambrosia artemisiifolia L., AMBEL); test: Post-emerge greenhouse herbicide test, phytotoxicity rating; conditions: 14 days after application
Procedure, shortened: as §1

[4] = tested on: upland rice (Oryza sp., var.Tebonnet, RICE); test: Pre-emerge greenhouse test, crop damage rating; conditions: 14 days after application, rating scale 0-100
Procedure, shortened: (§2)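 Visual 0–100 injury rating (100 = all plants dead) taken 14 days after treatment. Rates of 125–1000 g ai/ha in acetone, 187 l/ha, were sprayed onto soil one day post-sowing; pots were surface-watered to incorporate, then bottom-watered.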

[5] = tested on: field corn (Zea mays L., var. Dekalb 535, CORN); test: Pre-emerge greenhouse test, crop damage rating; conditions: 14 days after application, rating scale 0-100
Procedure, shortened: as §2

[6] = tested on: soybean (Glycine max L., var. Pella 86, SOY); test: Pre-emerge greenhouse test, crop damage rating; conditions: 14 days after application, rating scale 0-100
Procedure, shortened: as §2

[7] = tested on: large crabgrass (Digitaria sanguinalis, DIGSA); test: Pre-emerge greenhouse herbicide test, phytotoxicity rating; conditions: 14 days after application, rating scale 0-100
Procedure, shortened: as §2

[8] = tested on: sicklepod (Cassia obtusifolia, CASOB); test: as above; conditions: 14 days after application, rating scale 0-100
Procedure, shortened: as §2

[9] = tested on: redroot pigweed (Amaranthus retroflexus, AMARE); test: as above; conditions: 14 days after application, rating scale 0-100
Procedure, shortened: as §2

[10] = tested on: barnyardgrass (Echinochloa crusgalli, ECHCG); test: as above; conditions: 14 days after application, rating scale 0-100
Procedure, shortened: as §2

[11] = tested on: velvetleaf (Abutilon theophrasti, ABUTH); test: as above; conditions: 14 days after application, rating scale 0-100
Procedure, shortened: as §2

[12] = tested on: Johnsongrass (Sorghum halepense, SORHA); test: as above; conditions: 14 days after application, rating scale 0-100
Procedure, shortened: as §2

[13] = tested on: green foxtail (Setaria viridis, SETVI); test: as above; conditions: 14 days after application, rating scale 0-100
Procedure, shortened: as §2

[14] = tested on: ivyleaf morningglory (Ipomoea hederacea, IPOHE); test: as above; conditions: 14 days after application, rating scale 0-100
Procedure, shortened: as §2

[15] = tested on: common ragweed (Ambrosia artemisiifolia L., AMBEL); test: as above; conditions: 14 days after application, rating scale 0-100
Procedure, shortened: as §2

[16] = tested on: lambsquarters (Chenopodium album, CHEAL); test: as above; conditions: 14 days after application, rating scale 0-100
Procedure, shortened: as §2

[17] = tested on: soybean (Glycine max L., var. Pella 86, SOY); test: Post-emerge greenhouse test, crop damage rating; conditions: 14 days after application
Procedure, shortened: as §1

[18] = tested on: large crabgrass (Digitaria sanguinalis, DIGSA); test: Post-emerge greenhouse herbicide test, phytotoxicity rating; conditions: 14 days after application
Procedure, shortened: as §1

[19] = tested on: redroot pigweed (Amaranthus retroflexus, AMARE); test: as above; conditions: 14 days after application
Procedure, shortened: as §1

[20] = tested on: barnyardgrass (Echinochloa crusgalli, ECHCG); test: as above; conditions: 14 days after application
Procedure, shortened: as §1

[21] = tested on: velvetleaf (Abutilon theophrasti, ABUTH); test: as above; conditions: 14 days after application
Procedure, shortened: as §1

[22] = tested on: Johnsongrass (Sorghum halepense, SORHA); test: as above; conditions: 14 days after application
Procedure, shortened: as §1

[23] = tested on: green foxtail (Setaria viridis, SETVI); test: as above; conditions: 14 days after application
Procedure, shortened: as §1

[24] = tested on: ivyleaf morningglory (Ipomoea hederacea, IPOHE); test: as above; conditions: 14 days after application
Procedure, shortened: as §1

[25] = tested on: lambsquarters (Chenopodium album, CHEAL); test: as above; conditions: 14 days after application
Procedure, shortened: as §1

In the case of `CCOC(=O)C(C)Oc1ccc(Oc2cc(-n3c(=O)n4n(c3=S)CCCC4)c(F)cc2Cl)cc1` (centres unmarked) [Compound 8-11], the “RICE crop damage rating (0-100)” value ([1]; 63 g al/ha) is reported as 40, the “RICE crop damage rating (0-100)” value ([1]; 500 g al/ha) is reported as 50 and the “CORN crop damage rating (0-100)” value ([2]; 63 g al/ha) is reported as 20. For the same molecule, the “CORN crop damage rating (0-100)” value ([2]; 500 g al/ha) was 95, the “AMBEL phytotoxicity rating (0-100)” value ([3]; 63 g al/ha) was 100 and the “AMBEL phytotoxicity rating (0-100)” value ([3]; 500 g al/ha) was 100. For the same molecule, the “crop damage rating RICE” value ([4]; 125 g ai/ha) was 50, the “crop damage rating RICE” value ([4]; 500 g ai/ha) was 80 and the “crop damage rating CORN” value ([5]; 125 g ai/ha) was 0. The “crop damage rating CORN” value ([5]; 500 g ai/ha) was 0, the “crop damage rating SOY” value ([6]; 125 g ai/ha) was 20 and the “crop damage rating SOY” value ([6]; 500 g ai/ha) was 30. The “phytotoxicity rating DIGSA” value ([7]; 125 g ai/ha) was 20, the “phytotoxicity rating DIGSA” value ([7]; 500 g ai/ha) was 80 and the “phytotoxicity rating CASOB” value ([8]; 125 g ai/ha) was 70. The “phytotoxicity rating CASOB” value ([8]; 500 g ai/ha) was 60, the “phytotoxicity rating AMARE” value ([9]; 125 g ai/ha) was 100 and the “phytotoxicity rating AMARE” value ([9]; 500 g ai/ha) was 100. The “phytotoxicity rating ECHCG” value ([10]; 125 g ai/ha) was 60, the “phytotoxicity rating ECHCG” value ([10]; 500 g ai/ha) was 70 and the “phytotoxicity rating ABUTH” value ([11]; 125 g ai/ha) was 100. The “phytotoxicity rating ABUTH” value ([11]; 500 g ai/ha) was 100, the “phytotoxicity rating SORHA” value ([12]; 125 g ai/ha) was 70 and the “phytotoxicity rating SORHA” value ([12]; 500 g ai/ha) was 40. For the same molecule, the “phytotoxicity rating SETVI” value ([13]; 125 g ai/ha) was 90, the “phytotoxicity rating SETVI” value ([13]; 500 g ai/ha) was 100 and the “phytotoxicity rating IPOHE” value ([14]; 125 g ai/ha) was 70. The “phytotoxicity rating IPOHE” value ([14]; 500 g ai/ha) was 100, the “phytotoxicity rating AMBEL” value ([15]; 125 g ai/ha) was 95 and the “phytotoxicity rating AMBEL” value ([15]; 500 g ai/ha) was 100. The “phytotoxicity rating CHEAL” value ([16]; 125 g ai/ha) was 100, the “phytotoxicity rating CHEAL” value ([16]; 500 g ai/ha) was 100 and the “SOY crop damage rating (0-100)” value ([17]; 63 g al/ha) was 90. For the same molecule, the “SOY crop damage rating (0-100)” value ([17]; 500 g al/ha) was 100, the “DIGSA phytotoxicity rating (0-100)” value ([18]; 63 g al/ha) was 50 and the “DIGSA phytotoxicity rating (0-100)” value ([18]; 500 g al/ha) was 90. The “AMARE phytotoxicity rating (0-100)” value ([19]; 63 g al/ha) was 100, the “AMARE phytotoxicity rating (0-100)” value ([19]; 500 g al/ha) was 100 and the “ECHCG phytotoxicity rating (0-100)” value ([20]; 63 g al/ha) was 100. For the same molecule, the “ECHCG phytotoxicity rating (0-100)” value ([20]; 500 g al/ha) was 100, the “ABUTH phytotoxicity rating (0-100)” value ([21]; 63 g al/ha) was 100 and the “ABUTH phytotoxicity rating (0-100)” value ([21]; 500 g al/ha) was 100. For the same molecule, the “SORHA phytotoxicity rating (0-100)” value ([22]; 63 g al/ha) was 90, the “SORHA phytotoxicity rating (0-100)” value ([22]; 500 g al/ha) was 99 and the “SETVI phytotoxicity rating (0-100)” value ([23]; 63 g al/ha) was 30. The “SETVI phytotoxicity rating (0-100)” value ([23]; 500 g al/ha) was 60, the “IPOHE phytotoxicity rating (0-100)” value ([24]; 63 g al/ha) was 100 and the “IPOHE phytotoxicity rating (0-100)” value ([24]; 500 g al/ha) was 100. The “CHEAL phytotoxicity rating (0-100)” value ([25]; 63 g al/ha) was 100 and the “CHEAL phytotoxicity rating (0-100)” value ([25]; 500 g al/ha) was 100.
